Data: patent US9201014B2, “Development of photostable near-IR cyanine dyes for in vivo imaging” (National University of Singapore, priority 2010, dated 2015)

How the values were obtained:
Type in all cases: physicochemical
[1] = Primary screen of SERS intensities of CyNAMLA-functionalized AuNPs (compact Raman scanner); details: SERS spectra of CyNAMLA-functionalized AuNPs; excitation at 785 nm, laser power 60 mW
Description: FIG. 15 is a graph of the comparative surface-enhanced Raman spectroscopy (SERS) intensities of members of the CyNAMLA library measured with an excitation wavelength of 785 nm and a laser power of 60 mW in a compact Raman scanner.
The CyNAMLA compounds were adsorbed onto AuNPs having a diameter of approximately 60 nm, and the SERS properties of the resulting CyNAMLA-functionalized AuNPs were evaluated using a compact Raman scanner. Among metal nanoparticles, AuNPs are particularly suitable for in vivo applications due to their low toxicity, adaptability to bioconjugation, and reproducible signal intensity and quantification.

[2] = Characterization of the CyNAMLA library (absorbance maximum wavelengths); details: absorbance maximum wavelength of CyNAMLA library compounds
Description: The amine group of 21 was protected using di-tert-butyl dicarbonate then derivatized with 80 different primary amines (for structures, see FIGS. 14A-14D). After acetylation of the newly-introduced amine, the compounds were treated with a solution of TFA-DCM (1:9) to remove the tert-butylcarbamate protecting group. The deprotected amine was then coupled to lipoic acid to yield CyNAMLA derivatives with an average purity of 90% (for HPLC-determined purities, see Table 6).

[3] = Primary screening of photostability of the CyNA library (time-course fluorescence, 8 h); parameters: F/Fo, fluorescent intensity at 8 hours vs 0 hours: unit: %; details: 10 μM in HEPES 100 mM pH 7.4, 2% DMSO
Procedure, shortened: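 CyNA dyes at 10 μM in 100 mM HEPES pH 7.4 with 2% DMSO irradiated by xenon lamp for 8 h. Fluorescence (ex/em 790-820 nm) read every 10 min; stability given as F8h/Fo.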

[4] = Absorbance and fluorescence maximum wavelengths and quantum yields of the CyNA library
Procedure, shortened: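 Absorption and emission maxima and quantum yields of the 80-member amine-derivatized CyNA library were measured on a plate spectrophotometer.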

[5] = Time-course fluorescence measurements (photobleaching rate constants) of CyN and CyNA derivatives in HEPES buffer
Description: Values were fitted to a non-linear regression one-phase exponential decay (GraphPad Prism 5.0). Detailed statistics for the one-phase decay analysis of the CyN compounds and 1 follow: Photodecomposition rate constants were determined by plotting -ln(F/F0) vs time, and calculated using a pseudo-first order rate equation. See […]., et al., Photochem. Photobiol. 2000, 72, 392-398.

CCCN1/C(=C/C=C2\CCCC(/C=C/C3=[N+](CCCNC(=O)CCCCC4CCSS4)c4ccccc4C3(C)C)=C2N(Cc2ccc(F)cc2)C(C)=O)C(C)(C)c2ccccc21.O=C([O-])C(F)(F)F (stereo not drawn) [CyNAMLA-218]
Raman intensity [1]: 1922 | λabs (max) [2]: 804 nm

CCCN1/C(=C/C=C2\CCCC(/C=C/C3=[N+](CCC)c4ccccc4C3(C)C)=C2N(CCCOC)C(C)=O)C(C)(C)c2ccccc21.[I-] [CyNA-165]
F/Fo, fluorescent intensity at 8 hours vs 0 hours [3]: 94 | max RFU, maximum relative fluorescence units [3]: 775.1 | λabs, absorbance maximum wavelength ([4]; CyNA library): 806 nm | λem, fluorescence maximum wavelength ([4]; CyNA library): 821 nm | φ, quantum yield ([4]; in DMSO, Cardiogreen as standard): 0.09 | k, rate of photobleaching ([5]; 10 μM in 10 mM HEPES pH 7.4, 1% DMSO, pseudo-first order): 4.53e-06 s⁻¹ | kCyN/kCyNA ([5]; ratio of photobleaching rate constants, aqueous media): 8

CCCN1/C(=C/C=C2\CCCC(/C=C/C3=[N+](CCCNC(=O)CCCCC4CCSS4)c4ccccc4C3(C)C)=C2N(Cc2ccc(OC)c(OC)c2)C(C)=O)C(C)(C)c2ccccc21.O=C([O-])C(F)(F)F (stereo not drawn) [CyNAMLA-319]
Raman intensity [1]: 2850 | λabs (max) [2]: 805 nm

CCCN1/C(=C/C=C2\CCCC(/C=C/C3=[N+](CCCNC(=O)CCCCC4CCSS4)c4ccccc4C3(C)C)=C2N(C(C)=O)C2CCN(Cc3ccccc3)CC2)C(C)(C)c2ccccc21.O=C([O-])C(F)(F)F (stereo not drawn) [CyNAMLA-107]
Raman intensity [1]: 2397 | λabs (max) [2]: 805 nm

CCCN1/C(=C/C=C2\CCCC(/C=C/C3=[N+](CCCNC(=O)CCCCC4CCSS4)c4ccccc4C3(C)C)=C2N(CCc2cccc(OC)c2OC)C(C)=O)C(C)(C)c2ccccc21.O=C([O-])C(F)(F)F (stereo not drawn) [CyNAMLA-184]
Raman intensity [1]: 24133 | λabs (max) [2]: 803 nm

CCCN1/C(=C/C=C2\CCCC(/C=C/C3=[N+](CCCNC(=O)CCCCC4CCSS4)c4ccccc4C3(C)C)=C2N(Cc2cc(OC)c(OC)c(OC)c2)C(C)=O)C(C)(C)c2ccccc21.O=C([O-])C(F)(F)F (stereo not drawn) [CyNAMLA-356]
Raman intensity [1]: 2333 | λabs (max) [2]: 806 nm

CCCN1/C(=C/C=C2\CCCC(/C=C/C3=[N+](CCCNC(=O)CCCCC4CCSS4)c4ccccc4C3(C)C)=C2N(Cc2ccc(Cl)c(Cl)c2)C(C)=O)C(C)(C)c2ccccc21.O=C([O-])C(F)(F)F (stereo not drawn) [CyNAMLA-565]
Raman intensity [1]: 14019 | λabs (max) [2]: 805 nm

CCCN1/C(=C/C=C2\CCCC(/C=C/C3=[N+](CCCNC(=O)CCCCC4CCSS4)c4ccccc4C3(C)C)=C2N(CCCOC(C)C)C(C)=O)C(C)(C)c2ccccc21.O=C([O-])C(F)(F)F (stereo not drawn) [CyNAMLA-274]
Raman intensity [1]: 6417 | λabs (max) [2]: 806 nm

CCCN1/C(=C/C=C2\CCCC(/C=C/C3=[N+](CCCNC(=O)CCCCC4CCSS4)c4ccccc4C3(C)C)=C2N(CCCN(C)C)C(C)=O)C(C)(C)c2ccccc21.O=C([O-])C(F)(F)F (stereo not drawn) [CyNAMLA-427]
Raman intensity [1]: 1735 | λabs (max) [2]: 805 nm

CCCN1/C(=C/C=C2\CCCC(/C=C/C3=[N+](CCCNC(=O)CCCCC4CCSS4)c4ccccc4C3(C)C)=C2N(CCc2ccc(OC)c(OC)c2)C(C)=O)C(C)(C)c2ccccc21.O=C([O-])C(F)(F)F (stereo not drawn) [CyNAMLA-266]
Raman intensity [1]: 3013 | λabs (max) [2]: 806 nm

CCCN1/C(=C/C=C2\CCCC(/C=C/C3=[N+](CCCNC(=O)CCCCC4CCSS4)c4ccccc4C3(C)C)=C2N(Cc2ccccn2)C(C)=O)C(C)(C)c2ccccc21.O=C([O-])C(F)(F)F (stereo not drawn) [CyNAMLA-401]
Raman intensity [1]: 2920 | λabs (max) [2]: 804 nm

CCCN1/C(=C/C=C2\CCCC(/C=C/C3=[N+](CCCNC(=O)CCCCC4CCSS4)c4ccccc4C3(C)C)=C2N(CCc2ccccc2-c2ccccc2)C(C)=O)C(C)(C)c2ccccc21.O=C([O-])C(F)(F)F (stereo not drawn) [CyNAMLA-599]
Raman intensity [1]: 11616 | λabs (max) [2]: 804 nm

CCCN1/C(=C/C=C2\CCCC(/C=C/C3=[N+](CCCNC(=O)CCCCC4CCSS4)c4ccccc4C3(C)C)=C2N(CC(C)CC)C(C)=O)C(C)(C)c2ccccc21.O=C([O-])C(F)(F)F (stereo not drawn) [CyNAMLA-574]
Raman intensity [1]: 1763 | λabs (max) [2]: 804 nm

CCCN1/C(=C/C=C2\CCCC(/C=C/C3=[N+](CCCNC(=O)CCCCC4CCSS4)c4ccccc4C3(C)C)=C2N(Cc2cccc(OC)c2OC)C(C)=O)C(C)(C)c2ccccc21.O=C([O-])C(F)(F)F (stereo not drawn) [CyNAMLA-124]
Raman intensity [1]: 2201 | λabs (max) [2]: 804 nm
